{"source": "patent US20250161338A1", "about": "“Compounds for Anti-aging Intervention” (AGENCY FOR SCIENCE, TECHNOLOGY AND RESEARCH, priority 2022, published 2025)", "key": {"[1]": {"system": "prototrophic yeast strain (CEN.PK113-7D)", "assay": "Yeast outgrowth in YPD liquid medium (CLS of aged cells)", "format": "cell-based, Saccharomyces cerevisiae", "conditions": "concentration tested 100 μM; OD600 nm after 24 h in YPD at 30° C.; age point day 14", "method_in_brief": "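Cultures aged at 30 °C in SD medium with double-diluted rapamycin (0–10 nM) or sugars/polyols (0–8 mM). On day 14, 3 µL of culture was transferred into 200 µL YPD and outgrowth read as OD600. Survival expressed relative to day 1 outgrowth (100%).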"}, "[2]": {"system": "prototrophic yeast strain (CEN.PK113-7D)", "assay": "Propidium iodide fluorescence-based CLS method in yeast (incl. high-throughput screening);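 on PI intensity: untreated reference is eight DMSO and water control wells per plate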", "format": "cell-based, Saccharomyces cerevisiae", "conditions": "concentration tested 100 μM; for Yeast CLS increase: Yes/No call of the screen; for PI intensity: solvent DMSO or water, chronological age point Day 7 (72 h growth = Day 1), lower = more survival", "method_in_brief": "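CEN.PK113-7D aged in SD medium at 30 °C with compounds (rapamycin 0–10 nM; sugars 0–8 mM; screen at single concentrations). At each age point cells were stained with 5 μg/mL PI for 15 min; fluorescence was normalized to OD600, background-subtracted, and survival scaled against boiled-cell control.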"}}, "note": "Structures can show the parent of a compound that is named as a salt. Residues, ends and D or L forms follow the SMILES beside them."}
{"compound": "C[C@@H]1O[C@@H](O[C@H]2[C@H](O[C@H]3CC[C@@]4(C)[C@@H](CC[C@]5(C)[C@@H]4CC=C4[C@@H]6CC(C)(C)CC[C@]6(C(=O)O[C@@H]6O[C@H](CO[C@@H]7O[C@H](CO)[C@@H](O[C@@H]8O[C@@H](C)[C@H](O)[C@@H](O)[C@H]8O)[C@H](O)[C@H]7O)[C@@H](O)[C@H](O)[C@H]6O)CC[C@]45C)[C@]3(C)CO)OC[C@H](O)[C@@H]2O)[C@H](O)[C@H](O)[C@H]1O", "note": "[Hederacoside C]", "values": [{"measurement": "Outgrowth", "setting": "[1]", "result": 0.1}, {"measurement": "Yeast CLS increase", "setting": "[2]", "result": "No"}, {"measurement": "PI intensity", "setting": "[2]", "result": "73,515.9"}]}
{"compound": "CC1(C)CC[C@]2(C(=O)O)CC[C@]3(C)C(=CC[C@@H]4[C@@]5(C)CC[C@H](O)[C@@](C)(CO)[C@@H]5CC[C@]43C)[C@@H]2C1", "note": "[Hederagenin]", "values": [{"measurement": "Outgrowth", "setting": "[1]", "result": 0.1}, {"measurement": "Yeast CLS increase", "setting": "[2]", "result": "No"}, {"measurement": "PI intensity", "setting": "[2]", "result": "73,281.0"}]}
{"compound": "CC[C@H](C)[C@@H]1NC(=O)[C@@H]2CCCN2C(=O)[C@@H]2CCCN2C(=O)[C@@H]2CCCN2C(=O)[C@H](CC(C)C)NC(=O)CNC(=O)CNC(=O)[C@H](Cc2ccccc2)NC1=O", "note": "[Heterophyllin B] (cyclo(FGGLPPPI))", "values": [{"measurement": "Outgrowth", "setting": "[1]", "result": 0.2}, {"measurement": "Yeast CLS increase", "setting": "[2]", "result": "No"}, {"measurement": "PI intensity", "setting": "[2]", "result": "61,587.8"}]}
{"compound": "O=c1cc(O)cc(/C=C/c2ccc(O)c(O)c2)o1", "note": "[Hispidin]", "values": [{"measurement": "Outgrowth", "setting": "[1]", "result": 0.1}, {"measurement": "Yeast CLS increase", "setting": "[2]", "result": "No"}, {"measurement": "PI intensity", "setting": "[2]", "result": "67,098.8"}]}
{"compound": "COc1cc(CC(=O)O)ccc1O", "note": "[Homovanillic acid]", "values": [{"measurement": "Outgrowth", "setting": "[1]", "result": 0.1}, {"measurement": "Yeast CLS increase", "setting": "[2]", "result": "No"}, {"measurement": "PI intensity", "setting": "[2]", "result": "65,033.1"}]}
{"compound": "CCCCCCCCCCCCCCCC(=O)NCCO", "note": "[Impulsin]", "values": [{"measurement": "Outgrowth", "setting": "[1]", "result": 0.1}, {"measurement": "Yeast CLS increase", "setting": "[2]", "result": "No"}, {"measurement": "PI intensity", "setting": "[2]", "result": "71,903.7"}]}
{"compound": "C=C1C(=O)O[C@@H]2C[C@@]3(C)CCCC(=C)[C@@H]3C[C@H]12", "note": "[Isoalantolactone]", "values": [{"measurement": "Outgrowth", "setting": "[1]", "result": 0.1}, {"measurement": "Yeast CLS increase", "setting": "[2]", "result": "No"}, {"measurement": "PI intensity", "setting": "[2]", "result": "94,566.8"}]}
{"compound": "O=C(/C=C/c1ccc(O)c(O)c1)O[C@@H]1C[C@](O)(C(=O)O)C[C@@H](OC(=O)/C=C/c2ccc(O)c(O)c2)[C@H]1O", "note": "[Isochlorogenic acid A]", "values": [{"measurement": "Outgrowth", "setting": "[1]", "result": 0.1}, {"measurement": "Yeast CLS increase", "setting": "[2]", "result": "No"}, {"measurement": "PI intensity", "setting": "[2]", "result": "63,157.7"}]}
{"compound": "Nc1nccc(=O)[nH]1", "note": "[Isocytosine]", "values": [{"measurement": "Outgrowth", "setting": "[1]", "result": 0.1}, {"measurement": "Yeast CLS increase", "setting": "[2]", "result": "No"}, {"measurement": "PI intensity", "setting": "[2]", "result": "68,813.6"}]}
{"compound": "O=C(O)[C@H]1O[C@@H](Oc2c(-c3ccc(O)cc3)oc3cc(O)cc(O)c3c2=O)[C@H](O)[C@@H](O)[C@@H]1O", "note": "[Kaempferol 3-O-β-D-glucuronide]", "values": [{"measurement": "Outgrowth", "setting": "[1]", "result": 0.1}, {"measurement": "Yeast CLS increase", "setting": "[2]", "result": "No"}, {"measurement": "PI intensity", "setting": "[2]", "result": "62,874.6"}]}
{"compound": "Cl.N[C@@H](CS)C(=O)O.O", "note": "[L-Cysteine (hydrochloride hydrate)]", "values": [{"measurement": "Outgrowth", "setting": "[1]", "result": 0.1}, {"measurement": "Yeast CLS increase", "setting": "[2]", "result": "No"}, {"measurement": "PI intensity", "setting": "[2]", "result": "69,216.4"}]}
{"compound": "N[C@@H](CCO)C(=O)O", "note": "[L-Homoserine]", "values": [{"measurement": "Outgrowth", "setting": "[1]", "result": 0.1}, {"measurement": "Yeast CLS increase", "setting": "[2]", "result": "No"}, {"measurement": "PI intensity", "setting": "[2]", "result": "60,922.1"}]}
{"compound": "Nc1ccccc1C(=O)C[C@H](N)C(=O)O", "note": "[L-Kynurenine]", "values": [{"measurement": "Outgrowth", "setting": "[1]", "result": 0.1}, {"measurement": "Yeast CLS increase", "setting": "[2]", "result": "No"}, {"measurement": "PI intensity", "setting": "[2]", "result": "72,824.1"}]}
{"compound": "Cl.NCCC[C@H](N)C(=O)O", "note": "[L-Ornithine (hydrochloride)]", "values": [{"measurement": "Outgrowth", "setting": "[1]", "result": 0.1}, {"measurement": "Yeast CLS increase", "setting": "[2]", "result": "No"}]}
{"compound": "C[Se]CC[C@H](N)C(=O)O", "note": "[L-SelenoMethionine]", "values": [{"measurement": "Outgrowth", "setting": "[1]", "result": 1.2}, {"measurement": "Yeast CLS increase", "setting": "[2]", "result": "Yes"}, {"measurement": "PI intensity", "setting": "[2]", "result": "31,240.0"}]}
{"compound": "Br.CCN1C[C@]2(OC(=O)c3ccccc3NC(C)=O)CC[C@H](OC)[C@@]34[C@@H]2C[C@@H]([C@@H]13)[C@@]1(O)C[C@H](OC)[C@H]2C[C@@H]4[C@]1(O)[C@H]2OC", "note": "[Lappaconitine (hydrobromide)]", "values": [{"measurement": "Outgrowth", "setting": "[1]", "result": 0.1}, {"measurement": "Yeast CLS increase", "setting": "[2]", "result": "No"}, {"measurement": "PI intensity", "setting": "[2]", "result": "76,000.0"}]}
{"compound": "CCC[C@@H]1C[C@@H](C(=O)N[C@@H]([C@H]2O[C@H](SC)[C@H](O)[C@@H](O)[C@H]2O)[C@@H](C)O)N(C)C1", "note": "[Lincomycin (hydrochloride monohydrate), reference compound]", "values": [{"measurement": "Outgrowth", "setting": "[1]", "result": 0.1}, {"measurement": "Yeast CLS increase", "setting": "[2]", "result": "No"}, {"measurement": "PI intensity", "setting": "[2]", "result": "67,751.3"}]}
{"compound": "COC(=O)CC(C)=O", "note": "[Methyl acetylacetate]", "values": [{"measurement": "Outgrowth", "setting": "[1]", "result": 0.1}, {"measurement": "Yeast CLS increase", "setting": "[2]", "result": "No"}, {"measurement": "PI intensity", "setting": "[2]", "result": "64,956.3"}]}
